From US9023851B2 (Merck Patent GmbH, priority 2010, dated 2015)

Experiments:
Assay type in all cases: biochemical
Syk = target: T1, Syk (Homo sapiens, UniProt P43405); test: Syk enzyme assay (flash plate / Caliper mobility shift)
T1 construct: purchased BPS Bioscience, CA, USA
Protocol: The kinase assay is performed either as 384-well Flashplate assay (for e.g. Topcount measurement) or as 384-well Image-Flashplate assay (for LEADseeker measurement).
2.5 nM SYK, 400 nM Biotin-Aha-Aha-[…] and 10 μM ATP (spiked with 0.3 μCi 33P-ATP/well) are incubated in a total volume of 50 μl (60 mM Hepes, 10 mM MgCl2, 1.2 mM Dithiothreitol, 0.02% Brij35, 0.1% BSA, pH 7.5) with or without test compound for 1 hours at 30° C. The reaction is stopped with 25 μl 200 mM EDTA. After 30 Min at 30° C. the liquid is removed and each well washed thrice with 100 μl 0.9% sodium chloride solution. Non-specific reaction is determined in presence of 0.1 μM Staurosporine. Radioactivity is measured with Topcount (when using Flashplates) or with LEADseeker (when using Image-Flashplates) respectively. Results (e.g. IC50-values) are calculated with program tools provided by the IT-department (e.g. Symyx Assay Explorer, Genedata Screener).
(§1) Enzymatic Assays Using the Caliper LifeSciences Technology
(§2) The assays described here are performed on the Caliper Life Sciences LC3000 system This technology provides data on enzyme activity via measurement of the relative amounts of phosphorylated or unphosphorylated fluorescently labelled substrate peptide at the end of an enzymatic reaction. These different states of peptide are resolved by applying a potential difference across the sample. The presence of the charged phosphate group on the product (as opposed to the substrate) causes a different peptide mobility between the two peptides. This is visualized by excitation of the fluorescent label on the substrate and product peptides and represented as peaks within the analysis software.
(§3) In order to measure inhibitor activity of kinase inhibitors on this technology, a TTP Mosquito liquid handling instrument is used to place 0.25 ul of the appropriate concentration of inhibitor in 100% DMSO (for a dose response curve calculation) into each well of a 384-well plate. To this reaction components are added to a final volume of 25 ul. The table below indicates the sequences and concentrations for the assays described in this report. Standard components are 1 mM DTT (Sigma, D0632), 1 mM MgCl2 (Sigma, M1028), 100 mM HEPES pH 7.5 (Calbiochem, 391338), 0.015% Brij-35 (Sigma, B4184).
(§4) The reaction is incubated for 90 min at 25 C, and then stopped by the addition of 70 ul of Stop buffer (100 mM HEPES pH 7.5, 0.015% Brij-35, 10 mM EDTA (Sigma, E7889)).
(§5) The plate is read on a Caliper LC 3000 in an Off-Chip mobility shift assay format, on a 12-sipper chip. Unphosphorylated substrate and phosphorylated product peptide resolve as separate peaks allowing direct measurement of percentage of conversion of substrate to product. The percent conversion can be plotted against concentration of inhibitor to produce a sigmoidal dose response curve, from which an IC50 can be calculated using GeneData Condoseo or a similar product. Cellular activity assays

Src = target: T2, Src (Homo sapiens, UniProt P12931); test: cSrc enzymatic assay (Caliper LifeSciences technology)
T2 construct: purchased Carna Bioscience, Kobe, Japan
Protocol: as §1, §2, §3, §4, §5

ZAP-70 = target: T3, ZAP-70 (Homo sapiens, UniProt P43403); test: Zap70 enzymatic assay (Caliper LifeSciences technology)
T3 construct: purchased BPS Bioscience, CA, USA
T3 sequence (P43403 1-619): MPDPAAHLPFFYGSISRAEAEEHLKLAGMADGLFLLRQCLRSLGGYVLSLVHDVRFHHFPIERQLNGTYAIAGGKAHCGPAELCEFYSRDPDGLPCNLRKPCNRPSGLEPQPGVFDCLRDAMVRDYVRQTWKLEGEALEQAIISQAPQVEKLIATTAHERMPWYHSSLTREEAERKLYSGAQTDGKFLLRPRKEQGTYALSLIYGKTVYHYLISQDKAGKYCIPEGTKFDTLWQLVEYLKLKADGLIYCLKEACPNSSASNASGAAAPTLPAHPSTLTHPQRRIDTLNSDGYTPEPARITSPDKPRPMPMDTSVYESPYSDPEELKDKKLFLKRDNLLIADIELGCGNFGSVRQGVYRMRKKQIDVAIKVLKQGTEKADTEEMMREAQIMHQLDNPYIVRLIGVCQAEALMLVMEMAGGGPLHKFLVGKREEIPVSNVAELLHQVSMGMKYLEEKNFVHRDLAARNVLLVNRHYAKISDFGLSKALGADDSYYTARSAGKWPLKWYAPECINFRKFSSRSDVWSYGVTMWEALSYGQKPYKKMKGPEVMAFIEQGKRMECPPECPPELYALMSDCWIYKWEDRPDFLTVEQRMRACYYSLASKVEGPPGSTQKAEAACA
Protocol: as §1, §2, §3, §4, §5

KDR = target: T4, KDR (Homo sapiens, UniProt P35968); test: KDR enzymatic assay (Caliper LifeSciences technology)
T4 construct: purchased BPS Bioscience, CA, USA
Protocol: as §1, §2, §3, §4, §5

T4 sequence (P35968 20-1356): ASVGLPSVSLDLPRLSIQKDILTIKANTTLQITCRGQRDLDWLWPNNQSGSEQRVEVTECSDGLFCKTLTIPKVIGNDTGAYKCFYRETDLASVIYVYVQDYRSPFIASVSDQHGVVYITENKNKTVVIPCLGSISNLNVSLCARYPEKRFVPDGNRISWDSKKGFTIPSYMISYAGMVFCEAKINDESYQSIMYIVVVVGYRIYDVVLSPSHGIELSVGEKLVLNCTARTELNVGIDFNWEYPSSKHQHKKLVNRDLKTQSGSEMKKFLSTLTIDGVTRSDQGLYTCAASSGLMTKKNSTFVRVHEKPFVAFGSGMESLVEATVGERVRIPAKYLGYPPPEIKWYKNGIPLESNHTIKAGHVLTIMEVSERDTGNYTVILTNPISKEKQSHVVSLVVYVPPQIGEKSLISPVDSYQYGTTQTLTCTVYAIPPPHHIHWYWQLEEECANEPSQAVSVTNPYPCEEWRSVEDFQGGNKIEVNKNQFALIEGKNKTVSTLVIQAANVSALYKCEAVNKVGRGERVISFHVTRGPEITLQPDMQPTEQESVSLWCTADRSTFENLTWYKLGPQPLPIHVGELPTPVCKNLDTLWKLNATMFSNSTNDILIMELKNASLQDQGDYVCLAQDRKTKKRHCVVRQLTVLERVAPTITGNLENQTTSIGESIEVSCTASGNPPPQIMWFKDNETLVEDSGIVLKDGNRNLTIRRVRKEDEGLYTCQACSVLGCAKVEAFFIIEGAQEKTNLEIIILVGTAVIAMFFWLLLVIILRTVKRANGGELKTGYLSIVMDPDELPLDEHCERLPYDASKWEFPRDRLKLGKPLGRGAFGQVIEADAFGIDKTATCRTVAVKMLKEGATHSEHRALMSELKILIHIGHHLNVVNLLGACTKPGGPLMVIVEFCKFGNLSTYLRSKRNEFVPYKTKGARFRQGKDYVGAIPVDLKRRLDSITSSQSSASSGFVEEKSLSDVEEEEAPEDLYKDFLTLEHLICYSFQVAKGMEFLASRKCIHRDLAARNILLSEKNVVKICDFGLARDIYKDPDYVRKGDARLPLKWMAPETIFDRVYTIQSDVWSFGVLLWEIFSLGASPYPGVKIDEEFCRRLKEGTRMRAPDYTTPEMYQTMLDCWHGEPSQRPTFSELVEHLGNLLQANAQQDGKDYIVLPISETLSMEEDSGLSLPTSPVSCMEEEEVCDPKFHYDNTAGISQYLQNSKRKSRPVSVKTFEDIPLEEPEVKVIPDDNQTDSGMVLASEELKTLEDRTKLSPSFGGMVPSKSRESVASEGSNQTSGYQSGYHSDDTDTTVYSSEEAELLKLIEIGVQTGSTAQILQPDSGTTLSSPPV
T2 sequence (P12931 whole entry): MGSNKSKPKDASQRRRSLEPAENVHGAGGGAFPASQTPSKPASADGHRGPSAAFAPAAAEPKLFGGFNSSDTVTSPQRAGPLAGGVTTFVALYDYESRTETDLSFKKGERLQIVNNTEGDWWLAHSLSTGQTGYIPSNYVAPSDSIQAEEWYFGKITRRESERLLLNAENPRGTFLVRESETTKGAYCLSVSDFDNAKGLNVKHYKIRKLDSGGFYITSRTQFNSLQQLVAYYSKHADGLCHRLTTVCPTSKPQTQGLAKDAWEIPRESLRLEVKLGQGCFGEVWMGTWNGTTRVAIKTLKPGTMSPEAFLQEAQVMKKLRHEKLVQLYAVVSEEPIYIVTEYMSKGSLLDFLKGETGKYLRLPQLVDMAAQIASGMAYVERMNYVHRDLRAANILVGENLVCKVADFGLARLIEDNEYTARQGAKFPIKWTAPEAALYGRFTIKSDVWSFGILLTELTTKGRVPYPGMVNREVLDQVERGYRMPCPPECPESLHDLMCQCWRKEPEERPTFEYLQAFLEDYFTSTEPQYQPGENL

Structure (SMILES) | IC50 (Syk) [µM] | IC50 (Src) [µM] | IC50 (ZAP-70) [µM] | IC50 (KDR) [µM]
COc1cc(Nc2nc3c(Cl)nccn3n2)cc(OC)c1 [Example B2, 8-Chloro-[1,2,4]triazolo[1,5-a]pyrazin-2-yl-(3,5-dimethoxy-phenyl)-amine] | 3 to 50 | 3 to 50 |  | 
Cc1cccc(Nc2nc3c(NCCCN4CCOCC4)nccn3n2)c1 [Example C47, N^8-(3-Morpholin-4-yl-propyl)-N^2-m-tolyl-[1,2,4]triazolo[1,5-a]pyrazine-2,8-diamine] | 3 to 50 | 3 to 50 | 3 to 50 | 3 to 50
COc1cc(Nc2nc3c(-c4cccc5[nH]ncc45)nccn3n2)cc(OC)c1 [Example C303, (3,5-Dimethoxy-phenyl)-[8-(1H-indazol-4-yl)-[1,2,4]triazolo[1,5-a]pyrazin-2-yl]-amine] | < 0.3 | < 0.3 | < 0.3 | 0.3 to 3
COCCCNc1nccn2nc(Nc3cccc(C)c3)nc12 [Example C32, N^8-(3-Methoxy-propyl)-N^2-m-tolyl-[1,2,4]triazolo[1,5-a]pyrazine-2,8-diamine] | 3 to 50 | 3 to 50 | 3 to 50 | 3 to 50
Cc1cccc(Nc2nc3c(NCCCN4CCN(C)CC4)nccn3n2)c1 [Example C48, N^8-[3-(4-Methyl-piperazin-1-yl)-propyl]-N^2-m-tolyl-[1,2,4]triazolo[1,5-a]pyrazine-2,8-diamine] | 3 to 50 | 3 to 50 | 0.3 to 3 | 3 to 50
COc1cc(Nc2nc3c(NCCCN(C)C)nccn3n2)cc(OC)c1 [Example C38, N^2-(3,5-Dimethoxy-phenyl)-N^8-(3-dimethylamino-propyl)-[1,2,4]triazolo[1,5-a]pyrazine-2,8-diamine] | 3 to 50 | 3 to 50 |  | 3 to 50
COc1cc(Nc2nc3c(NCCCN4CCOCC4)nccn3n2)cc(OC)c1 [Example C39, N^2-(3,5-Dimethoxy-phenyl)-N^8-(3-morpholin-4-yl-propyl)-[1,2,4]triazolo[1,5-a]pyrazine-2,8-diamine] | 3 to 50 | 3 to 50 |  | 3 to 50
COCCCNc1nccn2nc(Nc3cc(OC)cc(OC)c3)nc12 [Example C40, N^2-(3,5-Dimethoxy-phenyl)-N^8-(3-methoxy-propyl)-[1,2,4]triazolo[1,5-a]pyrazine-2,8-diamine] | 3 to 50 | 3 to 50 |  | 3 to 50
Cc1cc(C)cc(Nc2nc3c(NCCCN4CCOCC4)nccn3n2)c1 [Example C28, N^2-(3,5-Dimethyl-phenyl)-N^8-(3-morpholin-4-yl-propyl)-[1,2,4]triazolo[1,5-a]pyrazine-2,8-diamine] | 3 to 50 | 3 to 50 |  | 0.3 to 3
CN(C)CCCNc1nccn2nc(Nc3cccc(C(F)(F)F)c3)nc12 [Example C33, N^8-(3-Dimethylamino-propyl)-N^2-(3-trifluoromethyl-phenyl)-[1,2,4]triazolo[1,5-a]pyrazine-2,8-diamine] | 3 to 50 | 3 to 50 |  | 3 to 50
COc1cc(Nc2nc3c(-c4cccc(CN)c4)nccn3n2)cc(OC)c1 [Example C114, [8-(3-Aminomethyl-phenyl)-[1,2,4]triazolo[1,5-a]pyrazin-2-yl]-(3,5-dimethoxy-phenyl)-amine] | < 0.3 | 0.3 to 3 |  | 0.3 to 3
COc1cc(Nc2nc3c(-c4cccc(C(N)=O)c4)nccn3n2)cc(OC)c1 [Example C276, 3-[2-(3,5-Dimethoxy-phenylamino)-[1,2,4]triazolo[1,5-a]pyrazin-8-yl]-benzamide] | < 0.3 | 0.3 to 3 |  | < 0.3
FC(F)(F)c1cccc(Nc2nc3c(-c4cccnc4)nccn3n2)c1 [Example C20, (8-Pyridin-3-yl-[1,2,4]triazolo[1,5-a]pyrazin-2-yl)-(3-trifluoromethyl-phenyl)-amine] | 0.3 to 3 | 3 to 50 |  | 3 to 50
Cc1cc(C)cc(Nc2nc3c(-c4ccc(N5CCOCC5)cc4)nccn3n2)c1 [Example C11, (3,5-Dimethyl-phenyl)-[8-(4-morpholin-4-yl-phenyl)-[1,2,4]triazolo[1,5-a]pyrazin-2-yl]-amine] | 3 to 50 | 3 to 50 |  | 3 to 50
Cc1cc(C)cc(Nc2nc3c(Cl)nccn3n2)c1 [Example B1, 8-Chloro-[1,2, 4]triazolo[1,5-a]pyrazin-2-yl-(3,5-dimethyl-phenyl)-amine] | 3 to 50 |  | 0.3 to 3 | 3 to 50

The remaining lines, values ahead:

IC50 (Syk) [µM] | IC50 (Src) [µM] | IC50 (ZAP-70) [µM] | IC50 (KDR) [µM] | Structure (SMILES)
3 to 50 | 3 to 50 | 3 to 50 | 3 to 50 | Cc1cc(C)cc(Nc2nc3c(NCCN)nccn3n2)c1 [Example C34, N^8-(2-Amino-ethyl)-N^2-(3,5-dimethyl-phenyl)-[1,2,4]triazolo[1,5-a]pyrazine-2,8-diamine]
3 to 50 | 3 to 50 |  | 3 to 50 | COc1cc(Nc2nc3c(NCCCN4CCN(C)CC4)nccn3n2)cc(OC)c1 [Example C30, N^2-(3,5-Dimethoxy-phenyl)-N^8-[3-(4-methyl-piperazin-1-yl)-propyl]-[1,2,4]triazolo[1,5-a]pyrazine-2,8-diamine]
3 to 50 | 3 to 50 |  | 3 to 50 | COc1cc(Nc2nc3c(NCCN)nccn3n2)cc(OC)c1 [Example C29, N^8-(2-Amino-ethyl)-N^2-(3,5-dimethoxy-phenyl)-[1,2,4]triazolo[1,5-a]pyrazine-2,8-diamine]
3 to 50 | 3 to 50 |  | 0.3 to 3 | c1ccc(Nc2nc3c(-c4cccnc4)nccn3n2)cc1 [Example C22, Phenyl-(8-pyridin-3-yl-[1,2,4]triazolo[1,5-a]pyrazin-2-yl)-amine]
0.3 to 3 | 0.3 to 3 |  | 0.3 to 3 | Cc1cc(C)cc(Nc2nc3c(-c4cccnc4)nccn3n2)c1 [Example C4, (3,5-Dimethyl-phenyl)-(8-pyridin-3-yl-[1,2,4]triazolo[1,5-a]pyrazin-2-yl)-amine]
3 to 50 | 3 to 50 |  | 3 to 50 | Cc1cccc(Nc2nc3c(NCCCN(C)C)nccn3n2)c1 [Example C46, N^8-(3-Dimethylamino-propyl)-N^2-m-tolyl-[1,2,4]triazolo[1,5-a]pyrazine-2,8-diamine]
< 0.3 | 0.3 to 3 | 3 to 50 |  | COc1cc(Nc2nc3c(-c4ccc5cccnc5c4)nccn3n2)cc(OC)c1 [Example C264, (3,5-Dimethoxy-phenyl)-(8-quinolin-7-yl-[1,2,4]triazolo[1,5-a]pyrazin-2-yl)-amine]
< 0.3 | 0.3 to 3 |  | < 0.3 | NC(=O)c1cccc(-c2nccn3nc(Nc4ccc(N5CCOCC5)cc4)nc23)c1 [Example C277, 3-[2-(4-Morpholin-4-yl-phenylamino)-[1,2,4]triazolo[1,5-a]pyrazin-8-yl]-benzamide]
